# Test results: patent US6844320B1, “Treatment of preeclampsia, toxemia and preterm labor with combination of progestational agent and a nitric oxide synthase substrate and/or donor” (Board of Regents, The University of Texas System, priority 1993, dated 2005)
# Entries after “also recorded” stand apart in the source; their conditions may differ. Marks after values point to notes of the source that are not given here.
# Key:
# pregnant rats [1] = test: L-NAME infusion in pregnant rats: blood pressure; assay type: in vivo, rat
# Text: The data in Table 1 below show the effects of L-NAME infusion on blood pressure (mm Hg) in pregnant rats.
# [2] = system: spontaneously contracting uterine strips from rat; test: Relaxation of spontaneously contracting uterine strips in muscle baths; assay type: cell-based
# Description: The tissues were obtained on days 17-22 (d17, d18, d19 and d22) of gestation, on day 22 (d22 del) during spontaeous delivery (1-3 pups delivered), or on 1 (d1pp) and 2 (d2pp) days postpartum. […] Data are analyzed by repeated measures ANOVA on seven groups. […] Each data point represent mean±S.E.M. The total number of strips studied at each time period was 8-16 from 4-6 animals per group.
# Each upstroke from baseline represents a contraction.
# In the experiments whose results are shown by the graph of FIG. 2, the tissues were obtained on days 17-22 (d17, d18, d19 and d22) of gestation, on day 22 (d22 del) during spontaneous delivery (1-3 pups delivered), or on 1 (d1pp) and 2 (d2pp) days postpartum. […] Each data point represent mean±SEM. The total number of strips studied at each time period was 8-16 from 4-6 animals per group.
# pregnant rats [3] = test: L-NAME infusion to pregnant rats: delivery and pups delivered; assay type: in vivo
# Text: The data in Table 2 below show the delivery and the pups delivered of L-NAME infusion to pregnant rats.
# [4] = system: L-NAME-induced "preeclampsia" animals; test: L-NAME-induced "preeclampsia": blood pressure and fetal weights; assay type: in vivo; conditions: for Effect on L-NAME-induced hypertension (blood pressure): 50 mg L-NAME (FIG. 5); for Effect on fetal weights (pup weights): same L-NAME-treated "preeclamptic" animals (FIG. 6)
smiles,measurement,setting,value
"COC(=O)[C@@H](N)CCCNC(=N)N[N+](=O)[O-] [L-NAME, N^G-nitro-L-arginine methyl ester]",Blood Pressure,"pregnant rats [1]; L-NAME 25 mg/day infusion, gestation Day 15",119 ± 2^a mm Hg
same,Blood Pressure,"pregnant rats [1]; L-NAME 25 mg/day infusion, gestation Day 18",144 ± 4^b mm Hg
same,Blood Pressure,"pregnant rats [1]; L-NAME 25 mg/day infusion, gestation Day 22",146 ± 2^b mm Hg
same,Blood Pressure,"pregnant rats [1]; L-NAME 50 mg/day infusion, gestation Day 15",123 ± 3^a mm Hg
same,Blood Pressure,"pregnant rats [1]; L-NAME 50 mg/day infusion, gestation Day 18",166 ± 2^c mm Hg
same,Blood Pressure,"pregnant rats [1]; L-NAME 50 mg/day infusion, gestation Day 22",168 ± 3^c mm Hg
same,Effect on the relaxation produced by L-arginine,[2]; 3 mM (FIG. 1B),reversed
same,Day of Delivery,pregnant rats [3]; L-NAME 25 mg/day,22.4 ± 0.2
same,Weight of pups,pregnant rats [3]; L-NAME 25 mg/day,5.05 ± 0.08^b
same,# of dead pups,"pregnant rats [3]; L-NAME 25 mg/day, 9 animals",5
same,Day of Delivery,pregnant rats [3]; L-NAME 50 mg/day,22.7 ± 0.2
same,Weight of pups,pregnant rats [3]; L-NAME 50 mg/day,4.56 ± 0.10^c
same,# of dead pups,"pregnant rats [3]; L-NAME 50 mg/day, 10 animals",10
N=C(N)NCCC[C@H](N)C(=O)O [L-arginine],Duration of complete inhibition of spontaneous uterine contractions,"[2]; 0.1 mM to 10 mM, strips from days 17-22 of gestation, delivery, postpartum (FIG. 2)",dose-dependent
same,Relaxation of spontaneously contracting tissues,"[2]; 1 mM (FIG. 1E), repeatable in the same strip",produced relaxation
same,Relaxation of spontaneously contracting uterine strips,"[2]; 1-3 mM, rat day 18 of gestation (FIG. 1 A, B, E)",substantial relaxations
same,"Relaxation effects during spontaneous delivery at term and postpartum, compared to all other times",[2]; from concentrations of 1 mM (FIG. 2),significantly (P<0.01) decreased
same,Effect on L-NAME-induced hypertension (blood pressure),[4],partially reduced blood pressure
same,Effect on fetal weights (pup weights),[4],"slightly but statistically significant, elevated fetal weights"
"CCC(=O)[C@@]1(C)CC[C@H]2[C@@H]3CCC4=CC(=O)CCC4=C3CC[C@@]21C [R 5020, promegestone]",Effect on L-NAME-induced hypertension (blood pressure),[4],partinally reduced
same,Effect on fetal weights (pup weights),[4],"slightly but statistically significant, elevated fetal weights"
CN(C)c1ccc2nc3ccc(=[N+](C)C)cc-3sc2c1 [methylene blue],Effect on the relaxation effect of L-arginine (1 mM),"[2]; 0.1 mM, added before the application of L-arginine",abolished
same,Effect on the relaxation produced by L-arginine,[2]; (FIG. 1E),reversed
[N]=O [nitric oxide],Relaxation of spontaneously contracting uterine strips,"[2]; 0.1 mM, rat day 18 of gestation (FIG. 1D)",substantial relaxations; also recorded: relaxation
